# Measurements as given in PubChem BioAssay AID1259246 (Broad Institute, 2017).
# Where “and” joins values, the source holds several entries; their conditions need not be identical. Identical values can stand only once. Records with an inconclusive call do not appear. Calls of active or inactive are those of the source.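 The calls were made as follows: active = valid dose-response fit whose half-maximal growth-inhibiting concentration is at or below a set limit above the top tested dose; inconclusive = flat fit with effect between 30 and 70%, or poor fit; inactive = half-maximal concentration above a set limit.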
# Tested on: Clostridioides difficile clinical isolate growth, OD600, 24 h
# Experiment: antibacterial activity against Clostridioides difficile – 10-point retest, dose response (AID 1259246)
row,SMILES,IC50
1,COc1ccc(CN(C)C[C@H]2OCCCC[C@H](C)Oc3ccc(NC(=O)Nc4ccc(C(F)(F)F)cc4)cc3C(=O)N([C@@H](C)CO)C[C@@H]2C)cc1,67.7 µM
2,COc1ccc(NC(=O)Nc2cccc3c2O[C@H](CN(C)Cc2ccc(Oc4ccccc4)cc2)[C@H](C)CN([C@@H](C)CO)C3=O)cc1,2.47 µM and 0.531 µM and 0.465 µM
3,O=C(NCC[C@H]1CC[C@H](NC(=O)C2CC2)[C@@H](CO)O1)Nc1ccc(C(F)(F)F)cc1,15.4 µM
4,C[C@@H]1CN([C@@H](C)CO)C(=O)c2cccc(NC(=O)Nc3ccccc3)c2O[C@@H]1CN(C)Cc1ccc(C(F)(F)F)cc1,54.2 µM and 28 µM
5,C[C@@H]1CN([C@@H](C)CO)C(=O)Cc2cc(NC(=O)CCCN(C)C)ccc2O[C@H]1CN(C)Cc1ccc(-c2ccccc2)cc1,31.4 µM
6,CO[C@H]1CN(C)C(=O)c2ccc(NC(=O)c3nc4ccccc4s3)cc2OC[C@@H](C)N(Cc2ccncc2)C[C@@H]1C,> 240 µM (inactive)
7,CO[C@H]1CN(C)C(=O)c2cc(NC(=O)Nc3ccc(Cl)c(Cl)c3)ccc2OC[C@H](C)NC[C@H]1C,15.7 µM and 26.5 µM
8,CO[C@@H](CN(C)C(=O)C1CCOCC1)[C@H](C)CN(C(=O)Nc1ccc(C(F)(F)F)cc1)[C@@H](C)CO,23.4 µM
9,C[C@@H]1CN([C@H](C)CO)C(=O)Cc2cc(NC(=O)CCCN(C)C)ccc2O[C@H]1CN(C)Cc1ccc(-c2ccccc2)cc1,74.7 µM and 48 µM
10,CNC[C@H]1Oc2cc(C#CC3CCCCC3)ccc2S(=O)(=O)N([C@H](C)CO)C[C@@H]1C,63.8 µM
11,C[C@@H]1CN([C@@H](C)CO)C(=O)c2cc(NC(=O)Nc3cccc4ccccc34)ccc2O[C@@H](C)CCCCO[C@H]1CN(C)CC1CCCCC1,77.1 µM
12,CO[C@@H]1CN(C)C(=O)c2cc(NC(=O)Nc3cc(Cl)cc(Cl)c3)ccc2OC[C@H](C)NC[C@H]1C,15.8 µM and 36.4 µM
13,CO[C@@H](CN(C)C(=O)C1CC1)[C@H](C)CN(C(=O)Nc1ccc(C(F)(F)F)cc1)[C@@H](C)CO,6.58 µM
14,COc1ccc(C#Cc2cnc3c(c2)C(=O)N([C@@H](C)CO)C[C@@H](C)[C@H](CN(C)CC2CCCC2)O3)cc1,188 µM
15,C[C@H](CO)N1C[C@H](C)[C@H](CN(C)C(=O)Nc2ccccc2)Oc2c(NC(=O)Nc3ccc(C(F)(F)F)cc3)cccc2C1=O,19.8 µM
16,CO[C@H]1CN(C)C(=O)c2cc(NC(=O)Nc3ccc(Cl)c(Cl)c3)ccc2OC[C@H](C)NC[C@@H]1C,15.1 µM and 73 µM
17,C[C@@H]1CN([C@@H](C)CO)S(=O)(=O)c2ccc(/C=C/c3ccccc3)cc2O[C@@H]1CN(C)Cc1ccc(C(=O)O)cc1,> 240 µM (inactive)
18,C[C@@H]1CN([C@@H](C)CO)C(=O)c2cccc(NC(=O)Nc3ccccc3)c2O[C@@H]1CN(C)Cc1ccc(Oc2ccccc2)cc1,1.2 µM and 0.402 µM and < 0.235 µM

row,SMILES,IC50
1,O=C(NCC[C@H]1CC[C@H](NS(=O)(=O)c2ccc(F)cc2)[C@@H](CO)O1)Nc1ccc(Cl)cc1,26.6 µM
2,C[C@@H]1CN([C@@H](C)CO)C(=O)c2cccc(NC(=O)Nc3ccc(F)cc3)c2O[C@@H]1CN(C)Cc1ccc(-c2ccccc2)cc1,4.56 µM and 1.71 µM and 1.93 µM
3,Cc1ccc(S(=O)(=O)N[C@H]2CC[C@@H](CCNC(=O)Nc3ccc(Cl)cc3)O[C@H]2CO)cc1,> 270 µM (inactive)
4,COc1ccc(CN(C)C[C@@H]2OCCCC[C@H](C)Oc3ccc(NC(=O)Nc4cccc5ccccc45)cc3C(=O)N([C@H](C)CO)C[C@H]2C)cc1,87.9 µM
5,C[C@H]1CN([C@@H](C)CO)C(=O)c2ccccc2-c2ccccc2CO[C@@H]1CN(C)Cc1ccccc1C(F)(F)F,13.6 µM
6,Cc1ccc(-c2ccc3c(c2)O[C@@H](CN(C)Cc2ccc(C(=O)O)cc2)[C@H](C)CN([C@H](C)CO)S3(=O)=O)cc1,97 µM
7,C[C@H]1CN([C@@H](C)CO)C(=O)c2cccc(NC(=O)Nc3ccc(C(F)(F)F)cc3)c2O[C@H]1CN(C)Cc1ccc(-c2ccccc2)cc1,116 µM
8,CC(C)CC#Cc1ccc2c(c1)O[C@H](CN(C)Cc1ccc(C(=O)O)cc1)[C@@H](C)CN([C@H](C)CO)S2(=O)=O,42.9 µM
9,Cc1ccc(-c2ccc3c(c2)O[C@@H](CN(C)Cc2ccc(C(=O)O)cc2)[C@H](C)CN([C@@H](C)CO)S3(=O)=O)cc1,110 µM
10,CNC[C@@H]1Oc2cc(C#CCC3CCCC3)ccc2S(=O)(=O)N([C@H](C)CO)C[C@H]1C,68.6 µM
11,C[C@@H]1CN([C@@H](C)CO)C(=O)c2ccccc2-c2ccccc2CO[C@H]1CN(C)Cc1ccccc1C(F)(F)F,19.5 µM
12,COc1ccc(S(=O)(=O)Nc2ccc3c(c2)C(=O)N([C@@H](C)CO)C[C@H](C)[C@@H](CN(C)Cc2ccc4c(c2)OCO4)OCCCC[C@@H](C)O3)cc1,12 µM
13,C[C@@H]1CN([C@@H](C)CO)C(=O)Cc2cc(NC(=O)CCCN(C)C)ccc2O[C@H]1CN(C)Cc1ccc(Oc2ccccc2)cc1,71.1 µM
14,C[C@H]1CN([C@@H](C)CO)S(=O)(=O)c2ccc(C#CCC3CCCC3)cc2O[C@H]1CN(C)C,70.9 µM
15,C[C@@H]1CN([C@@H](C)CO)S(=O)(=O)c2ccc(/C=C/c3ccccc3)cc2O[C@H]1CN(C)Cc1ccc(C(=O)O)cc1,3.3 µM
16,C[C@H]1CN([C@@H](C)CO)C(=O)Cc2cc(NC(=O)Nc3ccc(C(F)(F)F)cc3)ccc2O[C@H]1CN(C)Cc1ccncc1,7.49 µM
17,CO[C@H]1CN(C)C(=O)c2ccc(NC(=O)Nc3cc(Cl)cc(Cl)c3)cc2OC[C@H](C)NC[C@H]1C,25.6 µM and 69.2 µM
